ChEMBL document CHEMBL1201862, “PubChem BioAssay data set” (2004)
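All cell lines were grown in 96-well plates and treated with compound for 48 hours. Here, GI50 denotes the concentration required for 50% inhibition of growth.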 Activity calls are given as the source filed them. No stated cut-off is given here; in the data, active = GI50 up to about 1.1 µM and inactive = higher.

What was measured:
Assay in all cases: inhibition of tumour cell growth, NCI panel, 48 h
DMS-273 = system: DMS-273
HOP-92 = system: HOP-92
SN12C = system: SN12C
HCT-15 = system: HCT-15
A498 = system: A498
SK-MEL-28 = system: SK-MEL-28
LOX IMVI = system: LOX IMVI
NCI-H460 = system: NCI-H460
RXF 393 = system: RXF 393
CCRF-CEM = system: CCRF-CEM
HOP-62 = system: HOP-62
COLO 205 = system: COLO 205
TK-10 = system: TK-10
IGROV-1 = system: IGROV-1
SNB-78 = system: SNB-78
OVCAR-8 = system: OVCAR-8
M14 = system: M14

Cc1nc2sccn2c1C(=O)NC(=O)Nc1ccc(Cl)cc1
GI50 (DMS-273): 74.1 µM (inactive) | GI50 (HOP-92): 31.2 µM (inactive) | GI50 (SN12C): > 100 µM (inactive) | GI50 (HCT-15): > 100 µM | GI50 (A498): > 100 µM (inactive) | GI50 (SK-MEL-28): > 100 µM (inactive) | GI50 (LOX IMVI): > 100 µM (inactive) | GI50 (NCI-H460): > 100 µM (inactive) | GI50 (RXF 393): 37.8 µM (inactive) | GI50 (CCRF-CEM): > 100 µM (inactive) | GI50 (HOP-62): 41.3 µM (inactive) | GI50 (COLO 205): > 100 µM (inactive) | GI50 (TK-10): 30.9 µM (inactive) | GI50 (IGROV-1): > 100 µM (inactive) | GI50 (SNB-78): 42.9 µM (inactive) | GI50 (OVCAR-8): > 100 µM (inactive) | GI50 (M14): > 100 µM (inactive)

CC(=O)OCC1OC(OC2C(COC(C)=O)OC(Sc3ccccc3C)C(OC(C)=O)C2OC(C)=O)C(OC(C)=O)C(OC(C)=O)C1OC(C)=O (stereo not drawn)
GI50 (DMS-273): > 100 µM (inactive) | GI50 (HOP-92): 55 µM (inactive) | GI50 (SN12C): > 100 µM (inactive) | GI50 (HCT-15): > 100 µM | GI50 (A498): > 100 µM (inactive) | GI50 (SK-MEL-28): > 100 µM (inactive) | GI50 (NCI-H460): > 100 µM (inactive) | GI50 (RXF 393): > 100 µM (inactive) | GI50 (HOP-62): > 100 µM (inactive) | GI50 (COLO 205): > 100 µM (inactive) | GI50 (TK-10): > 100 µM (inactive) | GI50 (IGROV-1): > 100 µM (inactive) | GI50 (SNB-78): > 100 µM (inactive) | GI50 (M14): > 100 µM (inactive)

CC1(C)N=C(c2ccccn2)C(c2ccccn2)=NC1(C)C
GI50 (DMS-273): > 100 µM (inactive) | GI50 (HOP-92): > 100 µM (inactive) | GI50 (SN12C): > 100 µM (inactive) | GI50 (HCT-15): > 100 µM | GI50 (A498): > 100 µM (inactive) | GI50 (LOX IMVI): > 100 µM (inactive) | GI50 (NCI-H460): > 100 µM (inactive) | GI50 (RXF 393): > 100 µM (inactive) | GI50 (CCRF-CEM): > 100 µM (inactive) | GI50 (COLO 205): > 100 µM (inactive) | GI50 (IGROV-1): > 100 µM (inactive) | GI50 (SNB-78): > 100 µM (inactive) | GI50 (OVCAR-8): > 100 µM (inactive) | GI50 (M14): > 100 µM (inactive)

CCOC(=N)CC(=O)Nc1cccc(Cl)c1
GI50 (DMS-273): > 100 µM (inactive) | GI50 (SN12C): 51.2 µM (inactive) | GI50 (A498): > 100 µM (inactive) | GI50 (SK-MEL-28): > 100 µM (inactive) | GI50 (LOX IMVI): > 100 µM (inactive) | GI50 (NCI-H460): > 100 µM (inactive) | GI50 (RXF 393): > 100 µM (inactive) | GI50 (CCRF-CEM): > 100 µM (inactive) | GI50 (HOP-62): > 100 µM (inactive) | GI50 (COLO 205): > 100 µM (inactive) | GI50 (TK-10): > 100 µM (inactive) | GI50 (IGROV-1): > 100 µM (inactive) | GI50 (SNB-78): 5.65 µM (inactive) | GI50 (OVCAR-8): > 100 µM (inactive) | GI50 (M14): > 100 µM (inactive)

Nc1c2ccccc2nc2c(C(=O)Nc3ccc(S(N)(=O)=O)cc3)cccc12
GI50 (DMS-273): 52.8 µM (inactive) | GI50 (SN12C): > 100 µM (inactive) | GI50 (HCT-15): > 100 µM | GI50 (A498): > 100 µM (inactive) | GI50 (SK-MEL-28): > 100 µM (inactive) | GI50 (LOX IMVI): 40.1 µM (inactive) | GI50 (NCI-H460): > 100 µM (inactive) | GI50 (RXF 393): > 100 µM (inactive) | GI50 (CCRF-CEM): 12.5 µM (inactive) | GI50 (HOP-62): > 100 µM (inactive) | GI50 (COLO 205): > 100 µM (inactive) | GI50 (TK-10): > 100 µM (inactive) | GI50 (IGROV-1): > 100 µM (inactive) | GI50 (SNB-78): > 100 µM (inactive) | GI50 (OVCAR-8): 57.9 µM (inactive) | GI50 (M14): > 100 µM (inactive)

[N-]=[N+]=C1C(=O)C2CC3CC1CC2C3 (stereo not drawn)
GI50 (DMS-273): > 100 µM (inactive) | GI50 (HOP-92): > 100 µM (inactive) | GI50 (SN12C): > 100 µM (inactive) | GI50 (HCT-15): > 100 µM | GI50 (A498): > 100 µM (inactive) | GI50 (SK-MEL-28): > 100 µM (inactive) | GI50 (LOX IMVI): > 100 µM (inactive) | GI50 (NCI-H460): > 100 µM (inactive) | GI50 (RXF 393): > 100 µM (inactive) | GI50 (CCRF-CEM): > 100 µM (inactive) | GI50 (HOP-62): > 100 µM (inactive) | GI50 (COLO 205): > 100 µM (inactive) | GI50 (TK-10): > 100 µM (inactive) | GI50 (IGROV-1): > 100 µM (inactive) | GI50 (SNB-78): > 100 µM (inactive) | GI50 (OVCAR-8): > 100 µM (inactive) | GI50 (M14): > 100 µM (inactive)

COC(=O)[C@]12CCC(C)[C@H](C)[C@H]1C1=CCC3[C@@]4(C)CC[C@H](OC(C)=O)C(C)(C)C4CC[C@@]3(C)C1(C)C(O)C2 (stereo partly drawn)
GI50 (DMS-273): > 100 µM (inactive) | GI50 (HOP-92): > 100 µM (inactive) | GI50 (SN12C): > 100 µM (inactive) | GI50 (A498): > 100 µM (inactive) | GI50 (SK-MEL-28): > 100 µM (inactive) | GI50 (LOX IMVI): 74 µM (inactive) | GI50 (NCI-H460): > 100 µM (inactive) | GI50 (CCRF-CEM): 89.3 µM (inactive) | GI50 (HOP-62): > 100 µM (inactive) | GI50 (COLO 205): > 100 µM (inactive) | GI50 (TK-10): > 100 µM (inactive) | GI50 (IGROV-1): > 100 µM (inactive) | GI50 (SNB-78): > 100 µM (inactive) | GI50 (OVCAR-8): > 100 µM (inactive) | GI50 (M14): > 100 µM (inactive)
